Where a chain is given by its changes, count along the chain named.
Legend:
Assay type in all cases: biochemical
hmtThrRS [1] = target: T1, hmtThrRS (Homo sapiens, UniProt Q9BW92); assay: tRNA aminoacylation, […]tRNA TLC; ATP-PPi exchange; settings: 1 mM Thr, 10 uM E. coli tRNA-Thr, 10 mM MgCl2, pH 7.5
T1 construct: gene TARS2; mature form Leu20-Phe718, 699 residues, pET28, Ni-NTA, E. coli BL21(DE3), no reducing agent, dimer
T1 sequence (Q9BW92 20-718): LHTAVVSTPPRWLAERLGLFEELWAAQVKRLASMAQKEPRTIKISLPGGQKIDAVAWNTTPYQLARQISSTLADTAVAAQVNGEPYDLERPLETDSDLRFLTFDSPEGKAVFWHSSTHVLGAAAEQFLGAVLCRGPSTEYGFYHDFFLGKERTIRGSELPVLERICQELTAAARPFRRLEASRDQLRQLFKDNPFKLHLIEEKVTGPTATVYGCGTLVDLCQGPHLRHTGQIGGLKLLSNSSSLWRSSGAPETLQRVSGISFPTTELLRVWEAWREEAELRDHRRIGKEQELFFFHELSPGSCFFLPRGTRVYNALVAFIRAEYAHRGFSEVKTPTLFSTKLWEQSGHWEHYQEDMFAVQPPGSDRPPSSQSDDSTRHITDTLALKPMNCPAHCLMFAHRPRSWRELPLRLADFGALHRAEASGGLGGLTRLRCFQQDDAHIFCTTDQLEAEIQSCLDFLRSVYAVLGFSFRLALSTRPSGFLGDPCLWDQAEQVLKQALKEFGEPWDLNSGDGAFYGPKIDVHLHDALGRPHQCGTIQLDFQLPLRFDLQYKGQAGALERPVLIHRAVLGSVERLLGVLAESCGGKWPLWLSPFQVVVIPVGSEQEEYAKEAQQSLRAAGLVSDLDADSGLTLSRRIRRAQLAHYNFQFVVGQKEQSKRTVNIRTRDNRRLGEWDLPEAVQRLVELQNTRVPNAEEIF

EcThrRS = target: T2, EcThrRS (Escherichia coli, UniProt P0A8M3); assay: tRNA aminoacylation, […]tRNA TLC; settings: 1 mM Thr, E. coli tRNA-Thr, 10 mM MgCl2, pH 7.5
T2 construct: gene thrS; purified enzyme, construct not described in main text

hmtThrRS [2] = target: T1, hmtThrRS; assay: tRNA mischarging, […]tRNA TLC; settings: noncognate; 100 mM Ser, E. coli tRNA-Thr, 10 mM MgCl2, pH 7.5
hmtThrRS [3] = target: T3, hmtThrRS (Homo sapiens, UniProt Q9BW92, C185S/C506S/C603S); assay: tRNA aminoacylation and posttransfer editing, […]tRNA TLC, after preincubation; settings: covalent (S-nitrosation); 1 mM GSNO preincubation; C409 mutant (only Cys409 kept of the four sites)
T3 construct: gene TARS2; mature form Leu20-Phe718, 699 residues, pET28, Ni-NTA, E. coli BL21(DE3), no reducing agent, dimer
T3 sequence (Q9BW92 20-718 C185S/C506S/C603S): T1 sequence (Q9BW92 20-718) with C166S, C487S, C584S

hmtThrRS [4] = target: T4, hmtThrRS (Homo sapiens, UniProt Q9BW92, C409S/C506S/C603S); assay: as above; settings: covalent (S-nitrosation); 1 mM GSNO preincubation; C185 mutant (only Cys185 kept of the four sites)
T4 construct: gene TARS2; mature form Leu20-Phe718, 699 residues, pET28, Ni-NTA, E. coli BL21(DE3), no reducing agent, dimer
T4 sequence (Q9BW92 20-718 C409S/C506S/C603S): T1 sequence (Q9BW92 20-718) with C390S, C487S, C584S

hmtThrRS [5] = target: T5, hmtThrRS (Homo sapiens, UniProt Q9BW92, C185S/C409S/C506S); assay: as above; settings: covalent (S-nitrosation); 1 mM GSNO preincubation; C603 mutant (only Cys603 kept of the four sites)
T5 construct: gene TARS2; mature form Leu20-Phe718, 699 residues, pET28, Ni-NTA, E. coli BL21(DE3), no reducing agent, dimer
T5 sequence (Q9BW92 20-718 C185S/C409S/C506S): T1 sequence (Q9BW92 20-718) with C166S, C390S, C487S

hmtThrRS [6] = target: T1, hmtThrRS; assay: tRNA aminoacylation and mischarging, […]tRNA TLC, after preincubation; IBP-MS of modified Cys; settings: covalent (S-nitrosation, reversed by DTT); 1 uM enzyme preincubated with 1 or 5 mM GSNO, 37 C; pH 7.5, 10 mM MgCl2
hmtThrRS [7] = target: T6, hmtThrRS (Homo sapiens, UniProt Q9BW92, C185S/C409S/C603S); assay: tRNA aminoacylation and posttransfer editing, […]tRNA TLC, after preincubation; settings: covalent (S-nitrosation); 1 mM GSNO preincubation; C506 mutant (only Cys506 kept of the four sites)
T6 construct: gene TARS2; mature form Leu20-Phe718, 699 residues, pET28, Ni-NTA, E. coli BL21(DE3), no reducing agent, dimer
T6 sequence (Q9BW92 20-718 C185S/C409S/C603S): T1 sequence (Q9BW92 20-718) with C166S, C390S, C584S

T2 sequence (P0A8M3 whole entry): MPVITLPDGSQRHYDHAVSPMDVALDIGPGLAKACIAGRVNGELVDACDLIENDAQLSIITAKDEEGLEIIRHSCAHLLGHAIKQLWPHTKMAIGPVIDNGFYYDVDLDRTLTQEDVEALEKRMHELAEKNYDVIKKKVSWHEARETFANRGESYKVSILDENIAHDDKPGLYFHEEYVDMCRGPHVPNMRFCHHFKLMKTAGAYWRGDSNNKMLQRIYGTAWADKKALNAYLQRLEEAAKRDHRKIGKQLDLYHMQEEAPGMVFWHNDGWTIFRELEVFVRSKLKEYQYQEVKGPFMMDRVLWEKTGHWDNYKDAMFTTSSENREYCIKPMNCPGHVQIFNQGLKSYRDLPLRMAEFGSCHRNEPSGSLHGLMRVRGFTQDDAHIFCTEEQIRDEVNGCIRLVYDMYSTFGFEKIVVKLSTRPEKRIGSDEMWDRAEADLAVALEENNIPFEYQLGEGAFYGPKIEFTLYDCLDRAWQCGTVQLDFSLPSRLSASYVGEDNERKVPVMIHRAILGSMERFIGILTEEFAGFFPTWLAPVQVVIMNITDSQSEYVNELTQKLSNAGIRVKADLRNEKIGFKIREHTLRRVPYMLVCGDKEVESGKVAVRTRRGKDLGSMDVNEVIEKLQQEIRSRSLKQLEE

C[C@@H](O)[C@H](N)C(=O)O [Thr, L-Thr] was tested, and the “tRNA aminoacylation, [32P]tRNA TLC; ATP-PPi exchange” value (hmtThrRS [1]) was “The synthesis of Thr-tRNA^Thr was obviously not affected by H2O2” and the “tRNA aminoacylation, [32P]tRNA TLC” value (EcThrRS) was “aminoacylation activity of EcThrRS was assayed and compared”.

For N[C@@H](CO)C(=O)O [Ser, L-Ser], the “tRNA mischarging, [32P]tRNA TLC” value (hmtThrRS [2]) was “mischarging of tRNA^Thr with noncognate Ser was determined without or with H2O2 treatment”.

In the case of N[C@@H](CCC(=O)N[C@@H](CSN=O)C(=O)NCC(=O)O)C(=O)O [GSNO, S-nitrosoglutathione], the “tRNA aminoacylation and posttransfer editing, [32P]tRNA TLC, after preincubation” value (hmtThrRS [3]) is reported as “the inhibitory effect of GSNO on the C409 mutant was the most prominent”, the “tRNA aminoacylation and posttransfer editing, [32P]tRNA TLC, after preincubation” value (hmtThrRS [4]) is reported as “Both activities for the four mutants were obviously inhibited after GSNO incubation” and the “tRNA aminoacylation and posttransfer editing, [32P]tRNA TLC, after preincubation” value (hmtThrRS [5]) is reported as “Both activities for the four mutants were obviously inhibited after GSNO incubation”. The “tRNA aminoacylation and mischarging, [32P]tRNA TLC, after preincubation; IBP-MS” value (hmtThrRS [6]) was “The resulting inhibition of both the aminoacylation and mischarging activities of hmtThrRS was dose-dependent” and the “tRNA aminoacylation and posttransfer editing, [32P]tRNA TLC, after preincubation” value (hmtThrRS [7]) was “Both activities for the four mutants were obviously inhibited after GSNO incubation”.

Source: publication PMC7337905, “Nitrosative stress inhibits aminoacylation and editing activities of mitochondrial threonyl-tRNA synthetase by S-nitrosation” (Nucleic Acids Research, 2020)
